From ChEMBL document CHEMBL1944605, “Amides of xanthurenic acid as zinc-dependent inhibitors of Lp-PLA(2)” (Bioorg Med Chem Lett, 2012) come the findings set out here.

The target in assay [1] is T1, Platelet-activating factor acetylhydrolase (Homo sapiens, UniProt Q13093).
T1 sequence (Q13093 whole entry): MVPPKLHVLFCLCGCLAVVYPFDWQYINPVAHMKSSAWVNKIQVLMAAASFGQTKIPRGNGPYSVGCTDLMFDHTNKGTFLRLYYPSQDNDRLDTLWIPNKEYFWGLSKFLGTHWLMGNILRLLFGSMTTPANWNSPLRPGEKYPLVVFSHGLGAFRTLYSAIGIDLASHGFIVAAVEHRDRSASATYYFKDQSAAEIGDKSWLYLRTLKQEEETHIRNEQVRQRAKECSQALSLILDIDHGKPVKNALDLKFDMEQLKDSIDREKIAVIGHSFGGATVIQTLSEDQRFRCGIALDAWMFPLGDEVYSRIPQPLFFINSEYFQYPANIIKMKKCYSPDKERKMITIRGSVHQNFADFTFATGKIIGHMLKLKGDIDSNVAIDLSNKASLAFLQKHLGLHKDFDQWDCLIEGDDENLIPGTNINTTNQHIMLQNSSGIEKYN
The experiment in a line: Inhibition of human plasma lipoprotein-associated phospholipase A2 using 2-thio-PAF as substrate preincubated for 20 mins measured 1 hr post substrate addition by spectrophotometric analysis.

In assay [2] the target is T1, Platelet-activating factor acetylhydrolase. Briefly: Inhibition of human plasma lipoprotein-associated phospholipase A2 using 2-thio-PAF as substrate preincubated for 20 mins measured 1 hr post substrate addition by spectrophotometric analysis.

Consider `O=C(Nc1ccccc1)c1ccc2cccc(O)c2n1`, for which the IC50 in assay [1] and in assay [2] was over 100 µM each time.
`Oc1cccc2cccnc12` [OXYQUINOLINE]: the IC50 in assay [1] and in assay [2] was over 100 µM throughout.
Consider `O=C(O)c1cc(O)c2cccc(O)c2n1` [XANTHURENATE], for which the IC50 in assay [1] and in assay [2] was over 100 µM throughout.
